# Results taken from patent US7109190B2, “Carbacephem β-lactam antibiotics” (Trine Pharmaceuticals, Inc., priority 2003, dated 2006).
# How the values were obtained:
# MRSA COL = test: In vitro MIC by agar dilution against MRSA COL; assay type: cell-based; conditions: Staphylococcus aureus; MRSA COL isolate; read-out: MIC (μg/mL) MRSA COL
# Text: (§1) The in vitro MIC for bacterial isolates may be obtained in the following manner: a test compound is incorporated into a series of two-fold dilutions in liquified Mueller-hinton agar. Upon solidification, a number of different bacterial strains are spot-inoculated onto the surface of the agar. […] The procedures used in these experiments are generally those standardized by the National Committee for Clinical Laboratory Standards (NCCLS), as set forth in the NCCLS publication entitled “Methods for Dilution Antimicrobial Susceptibility Tests (1991), which is incorporated by reference as if fully set forth herein. The following exemplified such a procedure although it is to be understood that modifications of the procedure may be implemented as required.
# (§2) Aliquots of the test compounds are prepared in phosphate buffered saline (PBS) at pH approximately 7.2. Tween 20 or dimethylsulfoxide (DMSO) are added if necessary to solubilize the compound and vortexing, sonicating and gentle heating may also be employed. Typically, the concentration of the stock solution is 10× that of the highest compound concentration to be used. Serial two-fold dilutions are prepared down to the lowest concentration to be tested. Each compound concentration is tested in duplicate. A control plate using a reference drug such as cefotaxime, vancomycin or imipenem is used as a postive control. A negative control plate containing no drug or compound is also prepared.
# (§3) A few isolated colonies are retrieved from a pure culture prepared on agar plates and transferred to a tube of nutrient broth and allowed to grow at 35–36° C. until log-phase growth is achieved, usually about 4–6 hours. The broth is then added dropwise to PBS until the turbidity of the suspension matches a 0.5 McFarland standard which is equal to approximately 10^8 cfu/ml.
# (§4) The test plates containing the compound dilutions and the control plates are then inoculated with the PBS suspension. The plates are then incubated for 16–20 hours at 35–36° C. The plates are then observed to determine which concentration of the test compound is the MIC.
# (§5) It is expected that the compounds will be equally, if not more, potent against other resistant strains of bacteria as well as bacteria which are susceptible to current clinical antibiotics. The range of utility of the compounds herein can easily be established by those skilled in the art using the disclosures herein and all bacteria within the useful range are within the scope of this invention.
# MRSA 76 = test: In vitro MIC by agar dilution against MRSA 76; assay type: cell-based; conditions: Staphylococcus aureus; MRSA 76 isolate; read-out: MIC (μg/mL) MRSA 76
# Text: as §1, §2, §3, §4, §5
# human serum = test: Human serum binding (ultrafiltration, HPLC); assay type: in vitro ADME
# Experimental: The following procedure may be used to evaluate serum binding: compounds are incubated in serum for 10 min at 37° C. in a shaking water bath. Then a serum ultrafiltrate is obtained by centrifugation of ultra-filtration units (Amicon Centrifree) for, say, 20 minutes at 25° C. Compound content in the ultrafiltrate is quantified by HPLC using standards prepared in blank ultra-filtrate undergoing similar processing.
# as §5
# MRSA = MRSA potency, background prior-art compounds; cited from earlier work
# serum protein = conditions: background prior-art compounds; cited from earlier work
Structure (SMILES),MIC (MRSA COL) [µg/mL],MIC (MRSA 76) [µg/mL],Human Serum Binding (human serum) [%],MIC (MRSA) [µg/mL],serum binding (serum protein) [%]
Nc1nc(/C(=N/O)C(=O)NC2C(=O)N3C(C(=O)O)=C(Sc4nncs4)CCC23)c(Cl)s1 (stereo not drawn),2,2,66.9,,
Nc1nnc(SC2=C(C(=O)O)N3C(=O)C(NC(=O)/C(=N\O)c4nc(N)sc4Cl)C3CC2)s1 (stereo not drawn),1,2,68.0,,
NCCSCc1cnccc1SC1=C(C(=O)O)N2C(=O)C(NC(=O)/C(=N\O)c3nc(N)sc3Cl)C2CC1 (stereo not drawn),1,1,74.5,,
NCCSCc1ncccc1SC1=C(C(=O)O)N2C(=O)C(NC(=O)/C(=N\O)c3nc(N)sc3Cl)C2CC1 (stereo not drawn),1,2,89.4,,
Nc1nc(/C(=N/OCCF)C(=O)N[C@@H]2C(=O)N3C(C(=O)O)=C(Sc4nncs4)CCC23)cs1 (stereo partly drawn) [compound (2)],,,,2,> 99.2
Nc1nc(/C(=N/OCCF)C(=O)N[C@@H]2C(=O)N3C(C(=O)O)=C(Sc4nc5ccc([N+](=O)[O-])cc5s4)CCC23)cs1 (stereo partly drawn) [compound (3)],,,,4,99.6
Nc1nc(/C(=N/OCCF)C(=O)N[C@@H]2C(=O)N3C(C(=O)O)=C(Sc4nc5cnccc5s4)CCC23)cs1 (stereo partly drawn) [compound (4)],,,,64,36
